The results in this text go back to patent US7999126B2, “Palladium(0)-dibenzylidene acetone complexes” (priority 2007, dated 2011).

The nature of the series: Solubility Test: CHCl3-insoluble residue of the product. In kind it is physicochemical. Conditions: 1.00 g product in 150 ml chloroform. How it is done: 1.00 g of the product are dissolved in 150 ml of chloroform and stirred at room temperature for 30 minutes. The solution is then aspirated through a membrane filter. The filter is washed with 30 ml of water and 30 ml of acetone and subsequently dried over night at 45° C. in vacuo.
1.00 g of the product were dissolved in 150 ml of chloroform and stirred for 30 minutes at room temperature. The solution was aspirated through a membrane filter. The filter was washed with 30 ml of water and 30 ml of acetone and subsequently dried over night at 45° C. in vacuo.
1.00 g of the product were dissolved in 150 ml of chloroform and stirred for 30 minutes at room temperature. The solution was aspirated through a membrane filter. The filter was washed with 30 ml of water and 30 ml of acetone, and the filter was subsequently dried over night at 45° C. in vacuo.

For `O=C(/C=C/c1ccccc1)/C=C/c1ccccc1.O=C(/C=C/c1ccccc1)/C=C/c1ccccc1.[Pd]` [Experiment 1, Pd(dba)2], the CHCl3-insoluble ingredients (room temperature) is on record as 0%. Moreover, the “residue (Solubility Test)” value (stirred 30 minutes at room temperature, membrane filter, filter dried) amounted to 0%.
